Results reported in patent US9951033B2, “Tertiary amines for use in the treatment of cardiac disorders” (Universitetet I Oslo, priority 2012, dated 2018).
Read-outs that look alike come from different tables or passages of the source.

Legend:
[1] = target: GST-AKAP18δ: PLB-biotin interaction (Rattus norvegicus (Rat), UniProt Q6JP77); test: AKAP18δ-PLB AlphaScreen assay; type: binding
Experimental: Stable and optimal assay conditions were determined by cross-titrating GST-AKAP18 δ and biotinylated PLB using 10 μg/ml glutathione acceptor beads and 10 μg/ml streptavidin donor beads in an AlphaScreen assay. The excitation wavelength was 680 nm, with the emission wavelength being 520-560 nm. Signal intensity in each well was registered and the optimal concentration to use was chosen to be the concentration prior to the peak of the signal.
Concentrations to give a reliable signal were determined to be between 2 and 16 nM for AKAP18δ-GST and 4 and 20 nM PLB-biotin for relevant preparations of protein, for example 4 nM and 20 nM, respectively.

[2] = tested on: metabolically active cells; test: Cell viability luminescence assay; type: cell-based
Experimental: Compound toxicity was measured in a luminescence assay that gives a signal proportional to the amount of metabolically active cells in the sample; the assay was performed as described by the supplier. All synthesized compounds were tested in the viability assay, and viability was registered at 24 hours and 72 hours.

[3] = tested on: PLB-Ser16 phosphorylation; test: PLB-Ser16 phosphorylation in rat neonatal cardiomyocytes after isoproterenol stimulation (western blot); type: cell-based; conditions: 24 hours prior to isoproterenol 100 nM, 5 minutes
Experimental: Based on data from studies in cardiomyocytes assay using a peptide that blocks AKAP18δ-PLB interaction, it was expected that effective compounds would also cause disruption of the AKAP18δ-PLB complex and decrease PLB-Ser^16 phosphorylation (Lygren et al. in EMBO Reports, volume 8, issue 11, page 1061-1067 (2007). A small selection of hits from the derivatized compounds were tested in this cell-based assay, performed as described in Lygren et al.
Briefly, compounds were added to primary cultures of rat neonatal cardiomyocytes were added compounds about 24 hour prior stimulation with isoproterenol, and amount of phosphorylated Ser^16-PLB was analyzed by western blotting using a pSer^16-PLB phosphospecific antibody. Actin was used as a loading control.
Rat neonatal cardiomyocytes treated with compounds 24 hours prior stimulation with isoproterenol (100 nM, 5 minutes).
Following on Example 53, two compounds, 2g and 3d (FIGS. 9A,B and 9C, respectively), were tested in more detail for their ability to interfere with phosphorylation of phospholamban after stimulation of neonatal (FIGS. 9A and 9C) or adult (FIG. 9B) primary cultures of cardiomyocytes.

SERCA2 = SERCA2 (Rattus norvegicus (Rat), UniProt P11507); test: Patch clamp based SERCA2 activity in adult rat cardiomyocytes; type: cell-based; conditions: mesylate salt, 10 uM, in the presence of cAMP
Experimental: Adult rat cardiomyocytes were isolated and perfused with external solution (NaCl 125, CsCl 20, D-glucose 5, MgCl2 1, CaCl2 1.8, Hepes 10, 4-aminopyridine 5, probenecid 2, pH 7.4 by NaCH). Cell dialysis was achieved by 1-2 MΩ patch pipettes, filled with (in mM): CsCl 115, TEACl 20, Hepes 10, MgATP 5, Na2-Phosphocreatinine 5, EGTA 0.04, cAMP 0.005, adjusted to pH=7.2 with CsOH. Compound 2g (mesylate salt dissolved in water) was included at a concentration of 10 uM. Whole-cell Ca fluorescence measured from voltage-clamped cells was performed with Cairn Research Optoscan Monochromator (Excitation 488 nm, emission 515 nm long pass) (Cain Research Ltd., Faverham, UK). By applying 100 ms square voltage step from −45 to 0 mV at 0.125 Hz by an Axociamp 2B amplifier (Axon Instruments, Foster City, Calif., USA), basal Ca transients were recorded, and tau values were obtained by monoexponential fitting of the Ca^2+ extrusion phase from regular transients (τ) and caffeine transients (τcaff) after rapid applications of 10 mM caffeine. SERCA2 rate constant were calculated as: k_SERCA=1/τ−1/τcaff.

[4] = Aqueous solubility of tribenzylamine and salts quantified by HPLC (AUC); type: physicochemical; conditions: free base in water
Experimental: Tribenzylamine and the corresponding salts were dissolved in water and the solubility was quantified (area under curve (AUC)) by HPLC

[5] = screening of compound library, read-out: EC50
[6] = average ± standard deviation (n = 3) or ± half range (n = 2), read-out: EC50 in μM (n)
[7] = average ± standard deviation (n = 3) or ± half range (n = 2), read-out: EC50 (n)

Sequence of GST-AKAP18δ: PLB-biotin interaction (Q6JP77 whole entry): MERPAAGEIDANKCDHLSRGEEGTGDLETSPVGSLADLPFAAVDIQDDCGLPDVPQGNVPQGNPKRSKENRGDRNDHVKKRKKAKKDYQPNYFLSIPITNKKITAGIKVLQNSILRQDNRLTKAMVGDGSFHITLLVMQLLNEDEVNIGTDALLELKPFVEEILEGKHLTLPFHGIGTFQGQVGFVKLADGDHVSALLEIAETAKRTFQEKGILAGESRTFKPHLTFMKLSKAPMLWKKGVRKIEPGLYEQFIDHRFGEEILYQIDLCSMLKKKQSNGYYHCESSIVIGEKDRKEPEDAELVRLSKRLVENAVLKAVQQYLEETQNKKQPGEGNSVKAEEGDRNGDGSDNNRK

EC50 [1, 5] [µM]	SMILES	Viability (100 μM) 24 hours [2]	also measured
41.6	CC(C)(C)c1ccc(CN(Cc2ccc(F)cc2)Cc2nc(C(=O)O)cs2)cc1		
137	Cc1ccc(CN(Cc2ccc(F)cc2)Cc2nc(C(=O)O)cs2)cc1		
10.6	O=C(O)c1csc(CN(CCC(c2ccccc2)c2ccccc2)Cc2ccccc2F)n1		
18	O=C(O)c1csc(CN(CCC(c2ccccc2)c2ccccc2)Cc2ccc(F)cc2)n1		
21.1	CC(C)(C)c1ccc(CN(CCC(c2ccccc2)c2ccccc2)Cc2nc(C(=O)O)cs2)cc1		
36.4	O=C(O)c1csc(CN(Cc2ccc(F)cc2)Cc2cccc(Cl)c2)n1		
39.5	O=C(O)c1csc(CN(Cc2ccc(F)cc2)Cc2ccc(OCc3ccccc3)cc2)n1		
60.5	O=C(O)c1csc(CN(Cc2ccc(F)cc2)Cc2cccc(C(F)(F)F)c2)n1		
94.3	O=C(O)c1csc(CN(Cc2ccc(F)cc2)Cc2ccc(Cl)cc2)n1		
98.3	Cc1ccc(CN(Cc2cccc(C(F)(F)F)c2)Cc2nc(C(=O)O)cs2)cc1		
25.6	COc1ccc(CN(Cc2ccc(F)cc2)Cc2nc(C(=O)O)cs2)cc1		
35.4	Cc1ccc(CN(CCC(c2ccccc2)c2ccccc2)Cc2nc(C(=O)O)cs2)cc1		
29.6	O=C(O)c1ccc(CN(Cc2ccccc2)Cc2ccc(C(=O)O)cc2)cc1		
3.8	Nc1ccc(CN(Cc2ccccc2)Cc2ccc(N)cc2)cc1		
216	O=C(O)c1csc(CN(Cc2cccc(C(F)(F)F)c2)Cc2ccccc2F)n1		
9.3	O=C(Nc1ccc(F)cc1)Nc1ccc(CN(Cc2ccccc2)Cc2ccc(NC(=O)Nc3ccc(F)cc3)cc2)cc1		
3.6	O=C(Nc1ccccc1)Nc1ccc(CN(Cc2ccccc2)Cc2ccc(NC(=O)Nc3ccccc3)cc2)cc1		
2.9	CCN(CC)c1ccc(CN(Cc2ccccc2)Cc2ccc(N(CC)CC)cc2)cc1		

EC50 [1, 5] [µM]	SMILES	Viability (100 μM) 24 hours [2]	also measured
22.2	Nc1ccc(CN(Cc2ccc(N)cc2)Cc2ccc(N)cc2)cc1		
2.5	Cc1ccc(NC(=O)Nc2ccc(CN(Cc3ccccc3)Cc3ccc(NC(=O)Nc4ccc(C)cc4)cc3)cc2)cc1		
5.2	Cc1ccc(NC(=O)Nc2ccc(CN(Cc3ccc(NC(=O)Nc4ccccc4)cc3)Cc3ccc(NC(=O)Nc4ccc(C)cc4)cc3)cc2)cc1		
	Fc1ccc(CN(Cc2ccncc2)Cc2ccc(F)cc2)cc1 [Example 2a]	0.85	
	Oc1ccc(O)c(CN(Cc2ccncc2)Cc2cc(O)ccc2O)c1 [Example 2b]	0.10	EC50 [1, 6]: 12.3 ± 3.08 µM; Effect on PLB phosphorylation in cardiomyocytes [3]: −
	COC(=O)c1ccc(CN(Cc2ccccc2)Cc2ccc(C(=O)OC)cc2)cc1 [Example 2f]	0.92	
	CN(C)c1ccc(CN(Cc2ccccc2)Cc2ccc(N(C)C)cc2)cc1 [Example 2g]	0.56	EC50 [1, 6]: 1.7 ± 0.91 µM; Effect on PLB phosphorylation in cardiomyocytes [3]: ++; effect on PLB phosphorylation in cardiomyocytes [3]: concentration dependent inhibition of PLB-phosphorylation; SERCA2 activity (SERCA2): increased SERCA2 activity
	CC(c1ccccc1)N(Cc1ccc(N(C)C)cc1)Cc1ccc(N(C)C)cc1 (stereo not shown) [Example 2h]	0.91	
	CC(C)(C)c1ccc(CN(Cc2ccncc2)Cc2ccc(F)cc2)cc1 [Example 3a]	0.79	
	Oc1ccc(O)c(CN(Cc2ccncc2)Cc2ccc(F)cc2)c1 [Example 3b]	0.03	EC50 [1]: approximately the same as for 2b; EC50 [1, 7]: 5.43 ± 1.11 µM
	CN(C)c1ccc(CN(Cc2ccccc2)CC(c2ccccc2)c2ccccc2)cc1 [Example 3c]	0.74	EC50 [1, 7]: 0.44 ± 0.18 µM; EC50 ([1]; read-out: EC50): 0.327 µM; Effect on PLB phosphorylation in cardiomyocytes [3]: +; effect on PLB phosphorylation in cardiomyocytes [3]: somewhat weaker than that of 2g
	CN(C)c1ccc(CN(Cc2ccccc2)Cc2ccc3c(c2)CCO3)cc1 [Example 3d]	0.58	EC50 [1, 7]: 2.45 ± 0.73 µM; EC50 ([1]; read-out: EC50): 2.79 µM; effect on PLB phosphorylation in cardiomyocytes [3]: did not appear to have an effect
	COC(=O)c1ccc(CN(Cc2ccccc2)Cc2ccc(F)cc2)cc1 [Example 3e]	0.57	
	O=C(O)c1ccc(CN(Cc2ccccc2)Cc2ccc(F)cc2)cc1 [Example 3f]	0.98	Effect on PLB phosphorylation in cardiomyocytes [3]: +; effect on PLB phosphorylation in cardiomyocytes [3]: did not appear to have an effect
	Fc1ccc(CN(Cc2ccccc2)Cc2ccc(-c3ccccc3-c3nn[nH]n3)cc2)cc1 [Example 3g]	0.80	EC50 [1, 7]: 47.1 µM; EC50 ([1]; read-out: EC50): 47.1 µM
2	CN(C)c1ccc(CN(Cc2ccccc2)Cc2ccc(N(C)C)cc2)cc1 [drawing 177]		
	c1ccc(CN(Cc2ccccc2)Cc2ccccc2)cc1 [tribenzylamine, Tribenzylamine]		AUC Free base [4]: ≈0 mAu*s

SMILES	EC50 [1, 5] [µM]	Viability (100 μM) 24 hours [2]	also measured
O=[N+]([O-])c1ccc(CN(Cc2ccccc2)Cc2ccc([N+](=O)[O-])cc2)cc1	7.5		
